{
  "source": "patent US6316414A",
  "about": "“Somatostatin analogs for the treatment of cancer” (Dabur Research Foundation, priority 2000, dated 2001)",
  "system": "human colon adenocarcinoma (PTC) xenografts",
  "test": "In vivo antitumor activity on PTC xenografts in nude mice",
  "parameters": "species or system Balb/c athymic mice",
  "conditions": "for percentage inhibition of tumor growth as compared to controls: 8.5 μg/100 μl intravenously twice a day for 10 days",
  "protocol": "The antitumor activity of SEQ ID NO:2 and SEQ ID NO:3 was studied in human colon adenocarcinoma (PTC) xenografts in nude mice. PTC tumor xenografts were grown in Balb/c athymic mice by subcutaneous inoculation of a single cell suspension of PTC cells (15×10^6 cells/100 μl). The tumor bearing animals were divided into 3 groups of three animals each including one group comprising untreated control animals. Treatment with novel somatostatin analogs was initiated when the average tumor volumes, as measured using a vernier caliper, were between 400-800 mm^3. Solutions of SEQ ID NO:2 and SEQ ID NO:3 were prepared at a concentration of 85 μg/ml and intravenously administered to the assigned group of tumor bearing animals at a dose of 8.5 μg/100 μl twice a day so that the total dose of […] was administered to each animal. The treatment was continued for a period of 10 days.\nThe antitumor activity of the compounds was monitored by measuring tumor volumes every fourth day using the formula W*W*L*[…] (W=smaller diameter, L=larger diameter). The percentage inhibition of tumor growth was calculated using the formula (1-tumor volume-treated/tumor volume control)* 100.",
  "key": {"[1]": {"conditions": "day 0, average of three animals"}, "[2]": {"conditions": "day 9, average of three animals"}, "[3]": {"conditions": "day 13, average of three animals"}, "[4]": {"conditions": "day 18, average of three animals"}, "[5]": {"conditions": "day 21, average of three animals"}},
  "data": [
    {"substance": "D-Phe-Cys-Tyr-D-Trp-Orn-Ac5c-Pen-Thr-NH2 [SEQ ID NO: 3]", "values": [
      {"measurement": "tumor volume, individual animal", "setting": "animal I, day 0", "result": 0, "unit": "mm^3"},
      {"measurement": "tumor volume, individual animal", "setting": "animal I, day 9", "result": 560, "unit": "mm^3"},
      {"measurement": "tumor volume, individual animal", "setting": "animal I, day 13", "result": 1946, "unit": "mm^3"},
      {"measurement": "tumor volume, individual animal", "setting": "animal I, day 18", "result": 3177, "unit": "mm^3"},
      {"measurement": "tumor volume, individual animal", "setting": "animal I, day 21", "result": 0, "unit": "mm^3"},
      {"measurement": "tumor volume, individual animal", "setting": "animal II, day 0", "result": 0, "unit": "mm^3"},
      {"measurement": "tumor volume, individual animal", "setting": "animal II, day 9", "result": 774, "unit": "mm^3"},
      {"measurement": "tumor volume, individual animal", "setting": "animal II, day 13", "result": 1800, "unit": "mm^3"},
      {"measurement": "tumor volume, individual animal", "setting": "animal II, day 18", "result": 3610, "unit": "mm^3"},
      {"measurement": "tumor volume, individual animal", "setting": "animal II, day 21", "result": 4939, "unit": "mm^3"},
      {"measurement": "tumor volume, individual animal", "setting": "animal III, day 0", "result": 0, "unit": "mm^3"},
      {"measurement": "tumor volume, individual animal", "setting": "animal III, day 9", "result": 324, "unit": "mm^3"},
      {"measurement": "tumor volume, individual animal", "setting": "animal III, day 13", "result": 1530, "unit": "mm^3"},
      {"measurement": "tumor volume, individual animal", "setting": "animal III, day 18", "result": 4234, "unit": "mm^3"},
      {"measurement": "tumor volume, individual animal", "setting": "animal III, day 21", "result": 7301, "unit": "mm^3"},
      {"measurement": "tumor volume, Avg", "setting": "[1]", "result": 0, "unit": "mm^3"},
      {"measurement": "tumor volume, Avg", "setting": "[2]", "result": 552, "unit": "mm^3"},
      {"measurement": "tumor volume, Avg", "setting": "[3]", "result": 1758, "unit": "mm^3"},
      {"measurement": "tumor volume, Avg", "setting": "[4]", "result": 3674, "unit": "mm^3"},
      {"measurement": "tumor volume, Avg", "setting": "[5]", "result": 4080, "unit": "mm^3"},
      {"measurement": "percentage inhibition of tumor growth as compared to controls", "setting": "day 21", "result": 54.7, "unit": "%"}
    ]},
    {"substance": "D-Phe-Cys-Tyr-D-Trp-Orn-Deg-Pen-Thr-NH2 [SEQ ID NO: 2]", "values": [
      {"measurement": "tumor volume, individual animal", "setting": "animal IV, day 0", "result": 0, "unit": "mm^3"},
      {"measurement": "tumor volume, individual animal", "setting": "animal IV, day 9", "result": 480, "unit": "mm^3"},
      {"measurement": "tumor volume, individual animal", "setting": "animal IV, day 13", "result": 1254, "unit": "mm^3"},
      {"measurement": "tumor volume, individual animal", "setting": "animal IV, day 18", "result": 1965, "unit": "mm^3"},
      {"measurement": "tumor volume, individual animal", "setting": "animal IV, day 21", "result": 491, "unit": "mm^3"},
      {"measurement": "tumor volume, individual animal", "setting": "animal V, day 0", "result": 0, "unit": "mm^3"},
      {"measurement": "tumor volume, individual animal", "setting": "animal V, day 9", "result": 678, "unit": "mm^3"},
      {"measurement": "tumor volume, individual animal", "setting": "animal V, day 13", "result": 2196, "unit": "mm^3"},
      {"measurement": "tumor volume, individual animal", "setting": "animal V, day 18", "result": 5240, "unit": "mm^3"},
      {"measurement": "tumor volume, individual animal", "setting": "animal V, day 21", "result": 4839, "unit": "mm^3"},
      {"measurement": "tumor volume, individual animal", "setting": "animal VI, day 0", "result": 0, "unit": "mm^3"},
      {"measurement": "tumor volume, individual animal", "setting": "animal VI, day 9", "result": 806, "unit": "mm^3"},
      {"measurement": "tumor volume, individual animal", "setting": "animal VI, day 13", "result": 2333, "unit": "mm^3"},
      {"measurement": "tumor volume, individual animal", "setting": "animal VI, day 18", "result": 4453, "unit": "mm^3"},
      {"measurement": "tumor volume, individual animal", "setting": "animal VI, day 21", "result": 6250, "unit": "mm^3"},
      {"measurement": "tumor volume, Avg", "setting": "[1]", "result": 0, "unit": "mm^3"},
      {"measurement": "tumor volume, Avg", "setting": "[2]", "result": 654, "unit": "mm^3"},
      {"measurement": "tumor volume, Avg", "setting": "[3]", "result": 1927, "unit": "mm^3"},
      {"measurement": "tumor volume, Avg", "setting": "[4]", "result": 3886, "unit": "mm^3"},
      {"measurement": "tumor volume, Avg", "setting": "[5]", "result": 3860, "unit": "mm^3"},
      {"measurement": "percentage inhibition of tumor growth as compared to controls", "setting": "day 21", "result": 57.1, "unit": "%"}
    ]}
  ]
}
